Tests used:
Type in all cases: cell-based
human TLR7 = human TLR7 (Homo sapiens (Human), UniProt Q9NYK1); experiment: TLR7 inhibition reporter assay (HEK-Blue, SEAP); conditions: HEK-Blue cells overexpressing human TLR7, gardiquimod 7.5 μM stimulation
How it was run: (§1)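 Percent inhibition of agonist-induced SEAP secretion was scored against DMSO-only and reference-inhibitor controls. Stimulation lasted 22 h at 37 °C following 30 min compound pre-exposure (0.05 nM–50 μM); ligands were gardiquimod 7.5 μM, R848 15.9 μM and ODN2006 5 nM for TLR7, 8 and 9.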

human TLR8 = human TLR8 (Homo sapiens (Human), UniProt Q9NR97); experiment: TLR8 inhibition reporter assay (HEK-Blue, SEAP); conditions: HEK-Blue cells overexpressing human TLR8, R848 15.9 μM stimulation
How it was run: as §1

human TLR9 = human TLR9 (Homo sapiens (Human), UniProt Q9NR96); experiment: TLR9 inhibition reporter assay (HEK-Blue, SEAP); conditions: HEK-Blue cells overexpressing human TLR9, ODN2006 5 nM stimulation
How it was run: as §1

Chain of human TLR9 (Q9NR96 26-1032): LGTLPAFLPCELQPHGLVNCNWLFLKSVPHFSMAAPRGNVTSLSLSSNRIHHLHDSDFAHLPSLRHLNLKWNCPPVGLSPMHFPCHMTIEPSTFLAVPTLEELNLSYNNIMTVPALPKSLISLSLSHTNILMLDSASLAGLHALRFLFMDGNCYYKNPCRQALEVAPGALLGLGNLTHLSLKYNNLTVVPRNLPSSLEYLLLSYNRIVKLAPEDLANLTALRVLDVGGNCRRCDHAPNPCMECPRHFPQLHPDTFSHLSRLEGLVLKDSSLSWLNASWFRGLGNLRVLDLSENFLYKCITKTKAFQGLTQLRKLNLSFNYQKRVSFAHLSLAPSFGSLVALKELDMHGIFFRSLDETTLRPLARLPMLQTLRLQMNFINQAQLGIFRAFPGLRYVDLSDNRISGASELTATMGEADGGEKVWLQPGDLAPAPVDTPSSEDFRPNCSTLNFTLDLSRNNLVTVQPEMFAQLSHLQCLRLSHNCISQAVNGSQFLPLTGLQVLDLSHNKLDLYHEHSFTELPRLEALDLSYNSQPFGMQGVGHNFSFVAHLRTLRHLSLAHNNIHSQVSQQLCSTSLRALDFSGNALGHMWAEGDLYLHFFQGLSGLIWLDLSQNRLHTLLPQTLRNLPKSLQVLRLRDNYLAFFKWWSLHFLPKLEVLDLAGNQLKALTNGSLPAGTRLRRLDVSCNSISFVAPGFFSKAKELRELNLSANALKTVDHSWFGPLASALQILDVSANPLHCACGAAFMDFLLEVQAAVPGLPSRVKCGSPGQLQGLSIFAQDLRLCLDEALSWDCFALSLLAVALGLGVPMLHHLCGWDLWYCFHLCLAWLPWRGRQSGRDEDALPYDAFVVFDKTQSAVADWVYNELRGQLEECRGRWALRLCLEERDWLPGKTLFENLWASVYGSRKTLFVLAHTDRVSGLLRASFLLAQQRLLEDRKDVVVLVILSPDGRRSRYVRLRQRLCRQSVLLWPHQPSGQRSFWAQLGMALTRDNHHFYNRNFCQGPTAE
Chain of human TLR7 (Q9NYK1 27-1049): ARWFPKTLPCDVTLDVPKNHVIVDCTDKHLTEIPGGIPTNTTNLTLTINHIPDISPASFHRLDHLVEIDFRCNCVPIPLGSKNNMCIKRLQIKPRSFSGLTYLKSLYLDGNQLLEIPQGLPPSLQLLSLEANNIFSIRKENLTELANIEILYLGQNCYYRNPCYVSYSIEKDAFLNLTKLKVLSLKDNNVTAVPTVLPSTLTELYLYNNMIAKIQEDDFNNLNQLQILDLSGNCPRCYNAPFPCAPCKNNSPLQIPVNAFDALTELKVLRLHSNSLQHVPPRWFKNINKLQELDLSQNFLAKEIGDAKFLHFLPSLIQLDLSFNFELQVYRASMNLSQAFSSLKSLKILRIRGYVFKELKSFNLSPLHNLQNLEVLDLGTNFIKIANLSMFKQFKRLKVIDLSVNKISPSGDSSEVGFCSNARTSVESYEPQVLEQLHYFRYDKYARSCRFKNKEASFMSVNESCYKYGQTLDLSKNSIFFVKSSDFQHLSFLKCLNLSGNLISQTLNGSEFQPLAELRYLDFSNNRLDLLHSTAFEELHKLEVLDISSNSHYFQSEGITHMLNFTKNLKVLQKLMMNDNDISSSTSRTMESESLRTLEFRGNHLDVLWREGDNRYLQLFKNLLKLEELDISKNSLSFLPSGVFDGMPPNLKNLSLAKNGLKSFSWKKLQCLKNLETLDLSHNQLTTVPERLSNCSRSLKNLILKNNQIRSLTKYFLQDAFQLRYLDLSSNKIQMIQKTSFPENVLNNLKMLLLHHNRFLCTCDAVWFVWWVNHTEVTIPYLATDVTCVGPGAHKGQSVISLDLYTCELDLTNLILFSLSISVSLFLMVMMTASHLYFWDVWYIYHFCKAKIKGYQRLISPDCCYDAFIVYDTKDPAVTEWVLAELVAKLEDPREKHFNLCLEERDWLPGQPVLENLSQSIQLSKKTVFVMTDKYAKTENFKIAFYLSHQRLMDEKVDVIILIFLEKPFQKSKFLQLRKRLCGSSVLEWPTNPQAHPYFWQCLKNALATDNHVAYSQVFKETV
Chain of human TLR8 (Q9NR97 27-1041): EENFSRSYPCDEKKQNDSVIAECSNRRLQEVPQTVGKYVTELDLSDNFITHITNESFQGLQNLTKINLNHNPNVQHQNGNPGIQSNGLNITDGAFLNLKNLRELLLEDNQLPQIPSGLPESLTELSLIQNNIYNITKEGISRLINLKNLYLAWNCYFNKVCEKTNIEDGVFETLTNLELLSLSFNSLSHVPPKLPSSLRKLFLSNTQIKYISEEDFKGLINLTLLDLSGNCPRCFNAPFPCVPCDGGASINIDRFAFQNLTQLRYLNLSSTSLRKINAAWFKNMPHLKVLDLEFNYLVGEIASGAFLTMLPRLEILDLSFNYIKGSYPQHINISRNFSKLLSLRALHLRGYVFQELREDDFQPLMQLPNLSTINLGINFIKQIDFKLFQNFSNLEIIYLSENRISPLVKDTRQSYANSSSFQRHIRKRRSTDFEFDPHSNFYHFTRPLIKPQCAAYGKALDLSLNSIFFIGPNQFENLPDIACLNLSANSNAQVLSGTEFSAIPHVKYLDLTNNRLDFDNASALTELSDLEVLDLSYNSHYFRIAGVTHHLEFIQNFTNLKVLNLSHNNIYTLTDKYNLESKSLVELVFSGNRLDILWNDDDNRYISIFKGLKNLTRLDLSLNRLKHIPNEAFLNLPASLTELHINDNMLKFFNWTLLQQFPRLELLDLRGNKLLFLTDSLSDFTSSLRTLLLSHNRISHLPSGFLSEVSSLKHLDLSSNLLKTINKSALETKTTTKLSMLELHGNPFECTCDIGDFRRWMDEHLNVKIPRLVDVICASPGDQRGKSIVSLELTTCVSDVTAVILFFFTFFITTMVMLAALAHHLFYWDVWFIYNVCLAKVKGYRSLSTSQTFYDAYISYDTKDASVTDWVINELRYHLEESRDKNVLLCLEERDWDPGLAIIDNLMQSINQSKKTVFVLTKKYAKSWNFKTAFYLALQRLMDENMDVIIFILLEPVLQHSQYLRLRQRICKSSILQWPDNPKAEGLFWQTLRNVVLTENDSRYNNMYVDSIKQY

Compound | IC50 (human TLR7) [nM] | IC50 (human TLR8) [nM] | IC50 (human TLR9) [nM]
COc1ccc(-c2[nH]c3ccc(-c4nnc(CN5CCC[C@H]5C(N)=O)o4)cc3c2C(C)C)cc1OC [Example 122, (S)-1-((5-(2-(3,4-dimethoxyphenyl)-3-isopropyl-1H-indol-5-yl)-1,3,4-oxadiazol-2-yl)methyl)pyrrolidine-2-carboxamide] | 225 | 279 | > 50000
COc1ccc(-c2[nH]c3ccc(-c4nnc(CN(C)C)o4)cc3c2C(C)C)cc1OC [Example 44, 1-(5-(2-(3,4-dimethoxyphenyl)-3-isopropyl-1H-indol-5-yl)-1,3,4-oxadiazol-2-yl)-N,N-dimethylmethanamine] | 266 | 14 | 12100
COc1ccc(-c2[nH]c3ccc(-c4nnc(C(=O)N5CCN(c6cnccn6)CC5)o4)cc3c2C(C)C)cc1OC [Example 97, (5-(2-(3,4-dimethoxyphenyl)-3-isopropyl-1H-indol-5-yl)-1,3,4-oxadiazol-2-yl)(4-(pyrazin-2-yl)piperazin-1-yl)methanone] | 936 | 239 | > 50000
CC(C)c1c(-c2ccc3nccn3c2)[nH]c2ccc(-c3nnc(C(=O)NC4CCN(C(C)C)CC4)o3)cc12 [Example 241, 5-(2-(imidazo[1,2-a]pyridin-6-yl)-3-isopropyl-1H-indol-5-yl)-N-(1-isopropylpiperidin-4-yl)-1,3,4-oxadiazole-2-carboxamide] | 43 | 43 | 306
Cc1cc(-c2[nH]c3ccc(-c4cnc(N)cn4)cc3c2C(C)C)cc(C)n1 [Example 307, 5-(2-(2,6-dimethylpyridin-4-yl)-3-isopropyl-1H-indol-5-yl)pyrazin-2-amine] | 11 | 18 | 21100
Cc1cc(-c2[nH]c3ccc(-c4nnc(C5CCCN(C(C)C)C5)[nH]4)cc3c2C(C)C)ccn1 (stereo not drawn) [Example 204, 3-isopropyl-5-(5-(1-isopropylpiperidin-3-yl)-4H-1,2,4-triazol-3-yl)-2-(2-methylpyridin-4-yl)-1H-indole] | 67 | 5.7 | 218
CNC(=O)CN1CCCC(c2nnc(-c3ccc4[nH]c(-c5ccnc(C)c5)c(C(C)C)c4c3)[nH]2)C1 (stereo not drawn) [Example 175, 2-(3-(5-(3-isopropyl-2-(2-methylpyridin-4-yl)-1H-indol-5-yl)-4H-1,2,4-triazol-3-yl)piperidin-1-yl)-N-methylacetamide] | 560 | 7.4 | > 50000
Cc1cc(-c2[nH]c3ccc(-c4ccc(N5CCCC5)nc4)cc3c2C(C)C)cc(C)n1 [Example 336, 2-(2,6-dimethylpyridin-4-yl)-3-isopropyl-5-(6-(pyrrolidin-1-yl)pyridin-3-yl)-1H-indole] | 41 | 15 | 2340
Cc1cc(-c2[nH]c3ccc(-c4nnc(C5CCN(CC(=O)N(C)C)CC5)o4)cc3c2C(C)C)ccn1 [Example 65, 2-(4-(5-(3-isopropyl-2-(2-methylpyridin-4-yl)-1H-indol-5-yl)-1,3,4-oxadiazol-2-yl)piperidin-1-yl)-N,N-dimethylacetamide] | 97 | 2.9 | 2000
Cc1cc(-c2[nH]c3ccc(-c4nnc(C5CCCN(C(C)C)C5)o4)cc3c2C(C)C)ccn1 (stereo not drawn) [Example 292, 2-(3-isopropyl-2-(2-methylpyridin-4-yl)-1H-indol-5-yl)-5-(1-isopropylpiperidin-3-yl)-1,3,4-oxadiazole] | 44 | 2.5 | 551
Cc1cc(-c2[nH]c3ccc(-c4nc(C5CCNCC5)c[nH]4)cc3c2C(C)C)ccn1 [Example 189, 3-isopropyl-2-(2-methylpyridin-4-yl)-5-(4-(piperidin-4-yl)-1H-imidazol-2-yl)-1H-indole] | 175 | 43 | 921
Cc1cc(-c2[nH]c3ccc(-c4cnc(NC(=O)CN(C)C)cn4)cc3c2C(C)C)ccn1 [Example 365, 2-(dimethylamino)-N-(5-(3-isopropyl-2-(2-methylpyridin-4-yl)-1H-indol-5-yl)pyrazin-2-yl)acetamide] | 7.3 | 1.6 | 1290

More lines, in order of falling IC50 (human TLR7), values ahead:

IC50 (human TLR7) [nM] | IC50 (human TLR8) [nM] | IC50 (human TLR9) [nM] | Compound
1280 | 429 | > 50000 | COc1ccc(-c2[nH]c3ccc(-c4cccc(-c5ccc6nonc6c5)c4)cc3c2C(C)C)cc1OC [Example 409, 5-(3-(2-(3,4-dimethoxyphenyl)-3-isopropyl-1H-indol-5-yl)phenyl)benzo[c][1,2,5]oxadiazole]
947 | 28 | 721 | CCc1c(-c2ccc(OC)c(OC)c2)[nH]c2ccc(-c3ccc(N4CCNCC4)cc3)cc12 [Example 399, 2-(3,4-dimethoxyphenyl)-3-ethyl-5-(4-(piperazin-1-yl)phenyl)-1H-indole]
579 | 202 | > 50000 | COc1ccc(-c2[nH]c3ccc(-c4nnc(CN5CCOCC5)o4)cc3c2C(C)C)cc1OC [Example 115, 4-((5-(2-(3,4-dimethoxyphenyl)-3-isopropyl-1H-indol-5-yl)-1,3,4-oxadiazol-2-yl)methyl)morpholine]
561 | 109 | 26300 | COc1ccc(-c2[nH]c3ccc(-c4nnc(C(=O)N5CCN(C(C)=O)CC5)o4)cc3c2C(C)C)cc1OC [Example 92, 1-(4-(5-(2-(3,4-dimethoxyphenyl)-3-isopropyl-1H-indol-5-yl)-1,3,4-oxadiazole-2-carbonyl)piperazin-1-yl)ethan-1-one]
417 | 41 | > 50000 | CNCCN1CCn2nc(-c3ccc4[nH]c(-c5ccnc6[nH]ncc56)c(C(C)C)c4c3)nc2C1 [Example 217, 2-(2-(3-isopropyl-2-(1H-pyrazolo[3,4-b]pyridin-4-yl)-1H-indol-5-yl)-5,6-dihydro-[1,2,4]triazolo[1,5-a]pyrazin-7(8H)-yl)-N-methylethan-1-amine]
416 | 55 | 7290 | COc1ccc(-c2[nH]c3ccc(-c4cccc(C(=O)NCCN5CCOCC5)c4)cc3c2CC(F)(F)F)cc1OC [Example 29, 3-(2-(3,4-dimethoxyphenyl)-3-(2,2,2-trifluoroethyl)-1H-indol-5-yl)-N-(2-morpholinoethyl)benzamide]
348 | 111 | > 50000 | COc1ccc(-c2[nH]c3ccc(-c4nnc(C(=O)N5CCC(O)CC5)o4)cc3c2C(C)C)cc1OC [Example 91, (5-(2-(3,4-dimethoxyphenyl)-3-isopropyl-1H-indol-5-yl)-1,3,4-oxadiazol-2-yl)(4-hydroxypiperidin-1-yl)methanone]
158 | 40 | 2550 | COc1ccc(-c2[nH]c3ccc(-c4nnc(C5CCN(CC(=O)N(C)C)CC5)o4)cc3c2CC(F)(F)F)cc1OC [Example 83, 2-(4-(5-(2-(3,4-dimethoxyphenyl)-3-(2,2,2-trifluoroethyl)-1H-indol-5-yl)-1,3,4-oxadiazol-2-yl)piperidin-1-yl)-N,N-dimethylacetamide]
143 | 49 | 20400 | Cc1cc(-c2[nH]c3ccc(-c4cc5c(s4)CN(C(=O)C4CC(=O)N(C)C4)CC5)cc3c2C(C)C)cc(C)n1 (stereo not drawn) [Example 352, 4-(2-(2-(2,6-dimethylpyridin-4-yl)-3-isopropyl-1H-indol-5-yl)-4,5,6,7-tetrahydrothieno[2,3-c]pyridine-6-carbonyl)-1-methylpyrrolidin-2-one]
137 | 5.8 | 427 | CC(C)c1c(-c2ccnc3n[nH]cc23)[nH]c2ccc(-c3nc(C(=O)NC4CCN(C(C)C)CC4)co3)cc12 [Example 183, 2-(3-isopropyl-2-(2H-pyrazolo[3,4-b]pyridin-4-yl)-1H-indol-5-yl)-N-(1-isopropylpiperidin-4-yl)oxazole-4-carboxamide]
55 | 6.2 | 936 | COc1ccc(-c2[nH]c3ccc(-c4nnc(C(=O)NC5CCN(C(C)C)CC5)o4)cc3c2C(C)C)cc1OC [Example 59, 5-(2-(3,4-dimethoxyphenyl)-3-isopropyl-1H-indol-5-yl)-N-(1-isopropylpiperidin-4-yl)-1,3,4-oxadiazole-2-carboxamide]
28 | 13 | 1230 | COc1ccc(-c2[nH]c3ccc(-c4nnc(C5CCN(C(=O)CN(C)C)CC5)o4)cc3c2C(C)C)cc1OC [Example 3, 1-(4-{5-[2-(3,4-dimethoxyphenyl)-3-(propan-2-yl)-1H-indol-5-yl]-1,3,4-oxadiazol-2-yl}piperidin-1-yl)-2-(dimethylamino)ethan-1-one]
25 | 1.7 | 621 | CNCCc1nnc(-c2ccc3[nH]c(-c4ccnc(C)c4)c(C(C)C)c3c2)o1 [Example 142, 2-(5-(3-isopropyl-2-(2-methylpyridin-4-yl)-1H-indol-5-yl)-1,3,4-oxadiazol-2-yl)-N-methylethan-1-amine]
18 | 2.5 | 668 | CC(C)c1c(-c2ccnc3[nH]ncc23)[nH]c2ccc(-c3nnc(C(=O)NCCN(C)C)s3)cc12 [Example 195, N-(2-(dimethylamino)ethyl)-5-(3-isopropyl-2-(1H-pyrazolo[3,4-b]pyridin-4-yl)-1H-indol-5-yl)-1,3,4-thiadiazole-2-carboxamide]
1.7 | 1.7 | 151 | Cc1cc(-c2[nH]c3ccc(-c4ccc(N5CCNCC5)nc4)cc3c2C(C)C)cc(C)n1 [Example 257, 2-(2,6-dimethylpyridin-4-yl)-3-isopropyl-5-(6-(piperazin-1-yl)pyridin-3-yl)-1H-indole]
